Experimental data published in article PMC5394417, “Investigating the molecular mechanism of positive and negative allosteric modulators in the calcium-sensing receptor dimer” (Scientific Reports, 2017).
Substitutions are numbered along the chain they refer to. Several values for one entry are separate records, joined by “and”; a condition that tells them apart may be missing. Equal entries are not always repeated. Blank lines part the entries; values can stand above or below the molecule they belong to.

Biological target: T1, HA-S170A + myc-F801A (S170A:F801A heterodimer) (Rattus norvegicus, UniProt P48442, F801A/S170A)
T1 construct: mGluR5 signal peptide (N); expressed in transfected cells; host or cells: HEK293T
T1 sequence (P48442 20-1079 S170A): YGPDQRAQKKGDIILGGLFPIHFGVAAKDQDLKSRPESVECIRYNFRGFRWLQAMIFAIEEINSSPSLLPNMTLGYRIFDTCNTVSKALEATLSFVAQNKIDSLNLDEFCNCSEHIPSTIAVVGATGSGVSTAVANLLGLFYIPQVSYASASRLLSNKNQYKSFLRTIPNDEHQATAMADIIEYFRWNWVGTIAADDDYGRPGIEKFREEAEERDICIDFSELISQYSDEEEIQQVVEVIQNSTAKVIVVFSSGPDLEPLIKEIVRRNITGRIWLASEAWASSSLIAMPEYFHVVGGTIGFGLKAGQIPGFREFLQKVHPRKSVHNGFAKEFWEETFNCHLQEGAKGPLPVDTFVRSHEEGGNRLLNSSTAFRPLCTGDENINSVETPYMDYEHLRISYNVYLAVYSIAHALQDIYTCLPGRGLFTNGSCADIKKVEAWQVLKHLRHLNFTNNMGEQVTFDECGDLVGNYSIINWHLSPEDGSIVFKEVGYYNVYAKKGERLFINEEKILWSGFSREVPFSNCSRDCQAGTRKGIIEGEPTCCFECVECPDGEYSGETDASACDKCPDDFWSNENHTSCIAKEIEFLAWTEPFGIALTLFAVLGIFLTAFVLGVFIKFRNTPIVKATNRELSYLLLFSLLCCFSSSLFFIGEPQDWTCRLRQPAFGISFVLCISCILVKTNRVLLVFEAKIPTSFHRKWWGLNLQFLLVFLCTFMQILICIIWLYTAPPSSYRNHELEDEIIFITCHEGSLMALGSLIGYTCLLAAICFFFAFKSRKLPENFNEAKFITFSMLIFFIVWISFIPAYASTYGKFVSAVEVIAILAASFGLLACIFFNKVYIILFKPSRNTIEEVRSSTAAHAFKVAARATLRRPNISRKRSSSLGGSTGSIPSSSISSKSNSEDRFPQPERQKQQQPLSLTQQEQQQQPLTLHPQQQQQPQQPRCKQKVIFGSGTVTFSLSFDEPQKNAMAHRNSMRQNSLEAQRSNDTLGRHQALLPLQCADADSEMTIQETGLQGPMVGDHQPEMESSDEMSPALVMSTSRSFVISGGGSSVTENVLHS
T1 sequence (P48442 20-1079 F801A): T1 sequence (P48442 20-1079 S170A) with A151S, F782A
Experiment: IP-One trans-activation assay, co-expression 1:1 in HEK293T
Format: cell-based
Procedure: Human embryonic kidney (HEK) 293T cells were cultured in DMEM supplemented with 10% dFBS and 1% P/S at 37 °C and 5% CO2. 48 h prior to assay, transient transfection was performed using Lipofectamine 2000 as the transfection reagent. White opaque 96-well culture plates (PerkinElmer, Waltham, MA, USA) were used for the ELISA and the TR-FRET dimerization assay, while clear tissue culture treated 96-well plates (Corning, Corning, NY, USA) were used for the IP-One assay. Both plate types were coated with poly-D-lysine before addition of cells and transfection mix. 0.25 μl/well of Lipofectamine 2000 were diluted in 25 μl/well of Opti-MEM and incubated at room temperature (RT) for 5 min. 0.03 μg/well of DNA was diluted in 25 μl/well of Opti-MEM, and subsequently mixed with the Lipofectamine 2000 dilution and incubated 20 min at RT before addition to the plates. Cell suspensions of 170.000 HEK293T cells/mL were prepared in complete growth medium and 100 μl/well (17.000 cells/well) was added to the plates, which were incubated for 48 h at 37 °C and 5% CO2 before performing assays.
Functional activity was measured using the IP-One assay, which is an IP1 accumulation assay. For agonist testing, ligands were prepared in final concentrations in ligand buffer (HBSS, 20 mM HEPES, pH 7.4 supplemented with 20 mM LiCl). Cells were washed once with 100 μl/well of assay buffer (HBSS, 20 mM HEPES, pH 7.4) and 50 μl/well of agonist solution was added after which plates were incubated at 37 °C for 30 min. Subsequently, ligand solutions were removed and cells were washed with 100 μl/well of assay buffer. Cell lysis was performed by addition of 30 μl/well of IP-One Conjugate & Lysis Buffer (Cisbio Bioassays, Codolet, France) and plates were incubated at RT for 30 min. Afterwards, 30 μl/well of assay buffer was added to dilute the cell lysate. 10 μl/well of cell lysate was transferred from the 96-well plate to a 384-well Optiplate and 10 μl/well of detection solution (Assay buffer + 2.5% of anti-IP1 antibody cryptate Terbium conjugate + 2.5% IP1-d2 conjugate (Cisbio Bioassays, Codolet, France)) was also added. The 384-well plate was incubated for 1 h at RT in dark before being measured on an EnVision plate reader (PerkinElmer, Waltham, MA, USA). Upon excitation at 340 nm, emission at 615 nm and 665 nm was measured, and the FRET ratio (665 nm/615 nm) was converted to IP1 concentrations by interpolating values from an IP1 standard curve generated from a provided IP1 calibrator (Cisbio Bioassays, Codolet, France). When testing allosteric modulators, cells were pre-incubated for 30 min at 37 °C with 50 μl/well of ligand buffer supplemented with allosteric modulator and a final concentration of 1% DMSO. Afterwards, the buffer solution was removed and 50 μl/well of agonist solution in ligand buffer supplemented with allosteric modulator and a final concentration of 1% DMSO was added. Plates were incubated for 30 min at 37 °C followed by one wash in 100 μl/well of assay buffer. Cell lysis and detection was performed as described above.

[1] = HA-S170A + myc-F801A trans-activation response, Ca^2+ alone

EC50 [1]: 12.7 mM
Hill coefficient ± S.E.M. [1]: 2.69 ± 0.19
pEC50 ± S.E.M. [1]: 1.90 ± 0.03
Max ± S.E.M. (HA-S170A + myc-F801A, maximum trans-activation response normalized to maximum response of WT CaSR): 30% and 30 ± 1.9%
Structure (SMILES): [Ca+2] [Ca^2+]

inhibition of Ca^2+-mediated response (S170A:F801A heterodimer, highest tested NPS 2143 concentration (5 μM)): full inhibition
Structure (SMILES): CC(C)(Cc1ccc2ccccc2c1)NC[C@@H](O)COc1cccc(Cl)c1C#N.Cl [NPS 2143, NPS 2143 hydrochloride]

potentiation of Ca^2+-mediated response (S170A:F801A heterodimer, 0.05, 0.1 and 1 μM NPS R-568): concentration-dependent potentiation
Structure (SMILES): COc1cccc([C@@H](C)NCCCc2ccccc2Cl)c1.Cl [NPS R-568, NPS R-568 hydrochloride]
